Source: DBAASP
Converted amounts (≈) assume the structure as drawn.

Tests used:
Experiment in all cases: ≥ marks a high value that may be exact or a test limit, other limits are often not marked, values filed in µg/mL are converted to µM
[1] = system: Escherichia coli PCM 2057
[2] = system: Staphylococcus aureus PCM 1944
[3] = system: Acinetobacter baumannii 97830
[4] = system: Acinetobacter baumannii 9931
[5] = system: Acinetobacter baumannii ATCC 19606
[6] = system: Bacillus subtilis ATCC 23857
Escherichia coli 780 = system: Escherichia coli 780
Escherichia coli 804 = system: Escherichia coli 804
[7] = system: Klebsiella pneumoniae ATCC 700603
[8] = system: Pseudomonas aeruginosa 50
[9] = system: Pseudomonas aeruginosa 73
[10] = system: Pseudomonas aeruginosa ATCC 27853
[11] = system: Pseudomonas aeruginosa ATCC 9027
[12] = system: Staphylococcus aureus 113
Staphylococcus aureus 75 = system: Staphylococcus aureus 75
[13] = system: Staphylococcus aureus ATCC 29213
[14] = system: Staphylococcus epidermidis ATCC 12228
Escherichia coli BL21AI = system: Escherichia coli BL21AI
Escherichia coli D31 = system: Escherichia coli D31
Escherichia coli DC2 = system: Escherichia coli DC2
[15] = system: Escherichia coli DSM 1103
[16] = system: Klebsiella pneumoniae DSM 681
[17] = system: Klebsiella pneumoniae K6 ATCC 700603
[18] = system: Micrococcus luteus ATCC 10240
[19] = system: Salmonella enterica subsp. enterica serovar Typhimurium ATCC 700408
Aureobasidium pullulans = system: Aureobasidium pullulans
Bacillus megaterium = system: Bacillus megaterium
[20] = system: Candida albicans ATCC 10231
[21] = system: Corynebacterium glutamicum ATCC 13032
[22] = system: Escherichia coli ATCC 25922
Micrococcus luteus = system: Micrococcus luteus
[23] = system: Staphylococcus aureus ATCC 9144

An MIC [1] of no less than 491 µM and an MIC [2] of no less than 491 µM were found for `CC[C@H](C)[C@H](NC(=O)[C@@H](NC(=O)[C@@H](N)CO)C(C)C)C(=O)NCC(=O)N[C@H]1CSSC[C@@H](C(=O)N[C@@H](Cc2ccccc2)C(=O)N[C@H](C(=O)N[C@@H](CCCCN)C(N)=O)C(C)C)NC(=O)[C@@H]2CCCN2C(=O)[C@H](CCCN=C(N)N)NC(=O)[C@@H]2CCCN2C(=O)[C@@H]2CCCN2C(=O)[C@H]([C@@H](C)CC)NC(=O)[C@H](CO)NC(=O)[C@H](Cc2ccccc2)NC(=O)[C@H]([C@@H](C)O)NC(=O)[C@H](Cc2c[nH]c3ccccc23)NC1=O` [SVIGCWTFSIPPRPCFVK] in this work.

An MIC [3] of 16 µM (≈ 25.2 µg/mL), an MIC [4] of 16 µM (≈ 25.2 µg/mL) and an MIC [5] of 16 µM (≈ 25.2 µg/mL) were found for `NC(=O)[C@H](Cc1c[nH]c2ccccc12)NC(=O)[C@H](CCCN=C(N)N)NC(=O)[C@H](CCCN=C(N)N)NC(=O)[C@H](Cc1c[nH]c2ccccc12)NC(=O)[C@H](Cc1c[nH]c2ccccc12)NC(=O)[C@H](Cc1c[nH]c2ccccc12)NC(=O)[C@H](CCCN=C(N)N)NC(=O)[C@H](CCCN=C(N)N)NC(=O)[C@@H](N)Cc1c[nH]c2ccccc12` [WRRWWWRRW] in this work. For the same molecule, the MIC [6] was 4 µM (≈ 6.29 µg/mL), the MIC (Escherichia coli 780) was 16 µM (≈ 25.2 µg/mL) and the MIC (Escherichia coli 804) was no less than 32 µM. It also gave an MIC [7] of 16 µM (≈ 25.2 µg/mL), an MIC [8] of 16 µM (≈ 25.2 µg/mL) and an MIC [9] of 8 µM (≈ 12.6 µg/mL). For the same molecule, the MIC [10] was 4 µM (≈ 6.29 µg/mL), the MIC [11] was 8 µM (≈ 12.6 µg/mL) and the MIC [12] was 4 µM (≈ 6.29 µg/mL). It also gave an MIC (Staphylococcus aureus 75) of 8 µM (≈ 12.6 µg/mL), an MIC [13] of 4 µM (≈ 6.29 µg/mL) and an MIC [14] of 2 µM (≈ 3.15 µg/mL).

An MIC (Escherichia coli BL21AI) of 0.229 µM (≈ 0.49 µg/mL), an MIC (Escherichia coli D31) of 30 µM (≈ 64 µg/mL) and an MIC (Escherichia coli DC2) of 3.66 µM (≈ 7.81 µg/mL) were found for `CC[C@H](C)[C@H](NC(=O)[C@H](CCCN=C(N)N)NC(=O)[C@@H]1CCCN1C(=O)[C@H](Cc1cnc[nH]1)NC(=O)[C@@H]1CCCN1C(=O)[C@@H]1CCCN1C(=O)[C@H](CCCN=C(N)N)NC(=O)[C@@H]1CCCN1C(=O)[C@H](CCCN=C(N)N)NC(=O)[C@@H]1CCCN1C(=O)[C@@H](NC(=O)[C@H](Cc1ccc(O)cc1)NC(=O)[C@@H](NC(=O)[C@@H]1CCCN1C(=O)[C@H](CCCN=C(N)N)NC(=O)[C@H](CC(N)=O)NC(=O)[C@H](CC(N)=O)NC(=O)CN)C(C)C)[C@@H](C)CC)C(N)=O` [GNNRPVYIPRPRPPHPRI] in this work. For the same molecule, the MIC [15] was 0.459 µM (≈ 0.98 µg/mL), the MIC [16] was 7.31 µM (≈ 15.6 µg/mL) and the MIC [17] was 3.74 µM (≈ 8 µg/mL). For the same molecule, the MIC [18] was 0.459 µM (≈ 0.98 µg/mL) and the MIC [19] was 0.936 µM (≈ 2 µg/mL).

An MIC (Aureobasidium pullulans) of 5.56 µM (≈ 7.79 µg/mL), an MIC (Bacillus megaterium) of 2.78 µM (≈ 3.9 µg/mL) and an MIC [6] of 5.56 µM (≈ 7.79 µg/mL) were found for `C[C@H](NC(=O)[C@H](CCCCN)NC(=O)[C@H](Cc1c[nH]c2ccccc12)NC(=O)[C@H](Cc1c[nH]c2ccccc12)NC(=O)[C@H](Cc1c[nH]c2ccccc12)NC(=O)[C@H](Cc1c[nH]c2ccccc12)NC(=O)[C@H](CCCCN)NC(=O)[C@H](CCCCN)NC(=O)CN)C(=O)N[C@@H](CCCCN)C(N)=O` [GKKWWWWKAK] in this work. It also gave an MIC [20] of 11.1 µM (≈ 15.6 µg/mL), an MIC [21] of 5.56 µM (≈ 7.79 µg/mL) and an MIC [22] of 44.5 µM (≈ 62.5 µg/mL). It also gave an MIC (Micrococcus luteus) of 11.1 µM (≈ 15.6 µg/mL), an MIC [10] of 89.1 µM (≈ 125 µg/mL) and an MIC [23] of no less than 89.1 µM.

An MIC (Aureobasidium pullulans) of 11.9 µM (≈ 15.6 µg/mL), an MIC (Bacillus megaterium) of 0.761 µM (≈ 0.999 µg/mL) and an MIC [6] of 2.97 µM (≈ 3.9 µg/mL) were found for `C[C@H](NC(=O)[C@H](CCCCN)NC(=O)[C@H](Cc1c[nH]c2ccccc12)NC(=O)[C@H](Cc1c[nH]c2ccccc12)NC(=O)[C@H](Cc1c[nH]c2ccccc12)NC(=O)[C@@H]1CCCN1C(=O)[C@H](CCCCN)NC(=O)[C@H](CCCCN)NC(=O)CN)C(=O)N[C@@H](CCCCN)C(N)=O` [GKKPWWWKAK] in this work. The MIC [20] was 23.8 µM (≈ 31.3 µg/mL), the MIC [21] was 1.52 µM (≈ 2 µg/mL) and the MIC [22] was 23.8 µM (≈ 31.3 µg/mL). For the same molecule, the MIC (Micrococcus luteus) was 23.8 µM (≈ 31.3 µg/mL), the MIC [10] was 190 µM (≈ 250 µg/mL) and the MIC [23] was no less than 95.1 µM.

An MIC [1] of no less than 1560 µM and an MIC [2] of no less than 1560 µM were found for `C[C@@H]1NC(=O)[C@H](C)NC(=O)[C@H](CCCCN)NC(=O)[C@@H](N)CSSC[C@@H](C(=O)O)NC(=O)[C@H](Cc2ccccc2)NC1=O` [CKAAFC] in this work.

An MIC [3] of 8 µM (≈ 10.1 µg/mL), an MIC [4] of 8 µM (≈ 10.1 µg/mL) and an MIC [5] of 32 µM (≈ 40.3 µg/mL) were found for `NC(=O)[C@H](Cc1c[nH]c2ccccc12)NC(=O)[C@H](CCCN=C(N)N)NC(=O)[C@H](Cc1c[nH]c2ccccc12)NC(=O)[C@H](Cc1c[nH]c2ccccc12)NC(=O)[C@H](Cc1c[nH]c2ccccc12)NC(=O)[C@H](CCCN=C(N)N)NC(=O)[C@@H](N)Cc1c[nH]c2ccccc12` [WRWWWRW] in this work. The MIC [6] was 4 µM (≈ 5.04 µg/mL), the MIC (Escherichia coli 780) was 8 µM (≈ 10.1 µg/mL) and the MIC (Escherichia coli 804) was 8 µM (≈ 10.1 µg/mL). The MIC [7] was 8 µM (≈ 10.1 µg/mL), the MIC [8] was 16 µM (≈ 20.2 µg/mL) and the MIC [9] was no less than 32 µM. It also gave an MIC [10] of 16 µM (≈ 20.2 µg/mL), an MIC [11] of 32 µM (≈ 40.3 µg/mL) and an MIC [12] of 4 µM (≈ 5.04 µg/mL). For the same molecule, the MIC (Staphylococcus aureus 75) was 4 µM (≈ 5.04 µg/mL), the MIC [13] was 8 µM (≈ 10.1 µg/mL) and the MIC [14] was 2 µM (≈ 2.52 µg/mL).
